Experimental data published in patent publication US20110028447A1, “INDAZOLE DERIVATIVES” (Pfizer Inc., priority 2008, published 2011).

The compounds below were run against human CB1 receptor (Homo sapiens, UniProt P21554) (assay: Human CB1 receptor binding, [3H] CP-55,940 displacement on HEK cell membranes). Details: CB1 Ki.
Chain of human CB1 receptor (P21554 whole entry): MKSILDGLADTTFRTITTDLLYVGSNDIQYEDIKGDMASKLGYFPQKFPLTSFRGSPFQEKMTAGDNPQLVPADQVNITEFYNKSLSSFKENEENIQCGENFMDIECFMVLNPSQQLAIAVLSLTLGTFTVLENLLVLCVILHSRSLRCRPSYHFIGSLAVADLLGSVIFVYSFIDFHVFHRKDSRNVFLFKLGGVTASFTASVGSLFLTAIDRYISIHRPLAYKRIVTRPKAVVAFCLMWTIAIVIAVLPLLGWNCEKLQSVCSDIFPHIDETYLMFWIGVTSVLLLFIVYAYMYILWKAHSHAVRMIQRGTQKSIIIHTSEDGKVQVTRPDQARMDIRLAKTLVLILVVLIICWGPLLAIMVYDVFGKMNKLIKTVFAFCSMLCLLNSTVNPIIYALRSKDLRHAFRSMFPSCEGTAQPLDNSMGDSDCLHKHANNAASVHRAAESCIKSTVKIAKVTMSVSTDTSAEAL
Set-up: expressed in transfected cells; host or cells: HEK cells, doxycycline-induced; membrane preparation
Description: The Human CB1 receptor binding affinity and other biological activities of the compounds of this invention are determined by the following procedures. Membrane preparation: Human Embryonic Kidney (HEK) Cells expressing the human CB1 receptor under transcriptional regulation of a tetracycline inducible promoter were grown in Dulbecco's Modified Essential Medium with sodium pyruvate (Invitrogen, Carlsbad, Calif.) containing 10% tetracycline free fetal bovine serum (Clonetech, Mountain View, Calif.) 100 μg/ml hygromycin (Calbiochem, San Diego, Calif.), 5 μg/ml blasticidin (Invitrogen). CB1 receptor expression was induced by addition of 1 μg/ml doxycycline (Calbiochem) and incubation for an additional 24 hours. Cells were released from flasks using Cell Dissociation Buffer (Invitrogen). Cells were pelleted by centrifugation at 500×G for 5 minutes. Membranes were prepared by resuspending cells in ice cold TEE Buffer (25 mM Tris pH 7.4, 5 mM EDTA, 5 mM EGTA, Complete Protease Inhibitor (Roche, Basel, Switzerland)). Cells were lysed with 12 strokes of a dounce homogenizer. Unlysed cells were pelleted by centrifugation at 500×G for 5 minutes. Membranes were pelleted by centrifugation at 25,000×G for 30 minutes. Membranes were resuspended in TEE, dounced 12 strokes, and pelleted a second time at 25,000×G for 30 minutes. Membrane pellet was resuspended in 50 mM Tris pH 7.4, 100 mM NaCl, 3 mM MgCl2, 0.2 mM EGTA, Complete Protease Inhibitor (Roche). Protein concentration was determined using the Micro-BCA Protein Assay Kit (Pierce, Rockford, Ill.) using BSA as a standard. Membranes were quick frozen and stored at −80 degrees Celsius until use.
Binding experiments: 50 μl of test compound was incubated with 50 μl of [^3H] CP-55,940 (Perkin Elmer, Boston, Mass.) (final concentration=[…]) and 150 μl of membrane homogenate (1 μg/well) in polypropylene 96-well plates (Corning, Acton, Mass.). Final reaction conditions were 50 mM Tris pH 7.4, 100 mM NaCl, 3 mM MgCl2, 0.2 mM EGTA, 0.04% BSA. Nonspecific binding was determined by incubation with 50 μM WIN-55, 212-2 (Tocris, Ellisville, Mo.). After incubation at room temperature for 60 minutes reactions were harvested by vacuum filtration through Unifilter GF/B-96 filters (Perkin Elmer) that had been presoaked in assay buffer containing 0.5% BSA (Sigma, St. Louis, Mo.) using a FilterMate Plate Harvester (Perkin Elmer). Filters were rinsed 4 times with 50 mM Tris pH 7.4, 0.025% Tween-20 and dried at 50 degrees Celsius for at least 30 minutes. 40 μl of Microscint-20 (Perkin Elmer) was added per well, and plates were counted using a Top-Count Microplate Scintillation Counter (Perkin Elmer). Binding data were analyzed and EC50 and K, values calculated using Graph Pad Prism 4.0 Software.
`NC(=O)[C@H](Cc1ccccc1)NC(=O)c1nn(Cc2ccc(F)cc2)c2ccccc12` [Example 4, N-α-{[1-(4-fluorobenzyl)-1H-indazol-3-yl]carbonyl}-L-phenylalaninamide] showed a Ki of 0.708 µM. For `Cc1cc(Cn2nc(C(=O)N[C@H](C(N)=O)C(C)(C)C)c3ccccc32)no1` [Example 5, N-[(1S)-1-(aminocarbonyl)-2,2-dimethylpropyl]-1-[(5-methylisoxazol-3-yl)methyl]-1H-indazole-3-carboxamide], the Ki was 0.954 µM. `CC(C)(C)[C@H](NC(=O)c1nn(Cc2ccc(F)cc2)c2ccccc12)C(=O)NCC(=O)O` [Example 9, N-{[1-(4-fluorobenzyl)-1H-indazol-3-yl]carbonyl}-3-methyl-L-valylglycine] showed a Ki of 0.0842 µM. For `CC(C)(C)[C@H](NC(=O)c1nn(Cc2ccc(C#N)cc2)c2ccccc12)C(=O)NCc1nn[nH]n1` [Example 217], the Ki was > 0.4 µM. For `CC(C)(C)[C@H](NC(=O)c1nn(Cc2ccc(C#N)cc2)c2c(F)cccc12)C(=O)NCCS(C)(=O)=O` [Example 221], the Ki was 0.0875 µM. For `CC(C)(C)[C@H](NC(=O)c1nn(Cc2ccc(C#N)cc2)c2c(F)cccc12)C(=O)NCCS(N)(=O)=O` [Example 222], the Ki was 0.0214 µM. In the case of `CC(C)(C)[C@H](NC(=O)c1nn(Cc2ccc(F)cc2)c2ccccc12)C(=O)N[C@H](CO)C(=O)O` [Example 235], the Ki is reported as 0.222 µM. `COC(=O)[C@@H](O)CNC(=O)[C@@H](NC(=O)c1nn(Cc2ccc(C#N)cc2)c2ccccc12)C(C)(C)C` [Example 237] was tested, and the Ki was > 0.4 µM. Work on `CC(C)(C)[C@H](NC(=O)c1nn(Cc2ccc(F)cc2)c2ccccc12)C(=O)N[C@@H](CO)C(=O)O` [Example 240] yielded a Ki of 0.152 µM. Compound `CC(C)(C)[C@H](NC(=O)c1nn(Cc2ccc(F)cc2)c2ccccc12)C(=O)N[C@@H]1CCCC[C@H]1O` [Example 248] has a Ki of 0.108 µM. With `CC(C)(C)[C@H](NC(=O)c1nn(Cc2ccc(F)cc2)c2ccccc12)C(=O)N[C@H]1CCCC[C@@H]1O` [Example 252] the Ki was 0.205 µM. `CC(C)(C)[C@H](NC(=O)c1nn(Cc2ccc(C(F)(F)F)cc2)c2ccccc12)C(=O)NC[C@H](O)CO` [Example 256] showed a Ki of 0.0986 µM. With `CC(C)(C)[C@H](NC(=O)c1nn(Cc2ccc(C(F)(F)F)cc2)c2ccccc12)C(=O)NCCS(N)(=O)=O` [Example 257] the Ki was 0.224 µM. In the case of `CC(C)(C)[C@H](NC(=O)c1nn(Cc2ccc(C(F)(F)F)cc2)c2ccccc12)C(=O)NCCS(C)(=O)=O` [Example 258], the Ki is reported as > 0.4 µM. For `CC(C)(C)[C@H](NC(=O)c1nn(Cc2ccc(C(F)(F)F)cc2)c2ccccc12)C(=O)NCC(N)=O` [Example 259], the Ki was 0.132 µM. In the case of `CC(C)(C)[C@H](NC(=O)c1nn(Cc2ccc(C(F)(F)F)cc2)c2ccccc12)C(=O)NC[C@@H](O)CO` [Example 260], the Ki is reported as > 0.4 µM. In the case of `CC(C)(C)[C@H](NC(=O)c1nn(Cc2ccc(C(F)(F)F)cc2)c2ccccc12)C(=O)NC(CO)CO` [Example 261], the Ki is reported as 0.0767 µM. In the case of `CC(C)(C)[C@H](NC(=O)c1nn(Cc2ccc(C#N)cc2)c2ccccc12)C(=O)N1CCS(=O)(=O)CC1` [Example 268], the Ki is reported as > 0.4 µM. For `CC(C)(C)[C@H](NC(=O)c1nn(Cc2ccc(F)cc2)c2ccccc12)C(=O)N1CCS(=O)(=O)CC1` [Example 269], the Ki was 0.0238 µM. `CC(C)(C)[C@H](NC(=O)c1nn(Cc2cccc3ccccc23)c2ccccc12)C(N)=O` [Example 272] was tested, and the Ki was > 0.4 µM. For `CC(C)(C)[C@H](NC(=O)c1nn(Cc2cccc3ccccc23)c2ccccc12)C(=O)NC1CC1` [Example 273], the Ki was > 0.4 µM. In the case of `CC(C)(C)[C@H](NC(=O)c1nn(Cc2cccc3ccccc23)c2ccccc12)C(=O)NCCO` [Example 274], the Ki is reported as > 0.4 µM. In the case of `CC(C)(C)[C@H](NC(=O)c1nn(Cc2cccc3ccccc23)c2ccccc12)C(=O)NCC(N)=O` [Example 275], the Ki is reported as > 0.4 µM. In the case of `CC(C)(C)[C@H](NC(=O)c1nn(Cc2cccc3ccccc23)c2ccccc12)C(=O)NC[C@H](O)CO` [Example 276], the Ki is reported as > 0.4 µM. `CC(C)(C)[C@H](NC(=O)c1nn(Cc2ccc(F)cc2)c2ccccc12)C(=O)N[C@H]1CCC[C@@H]1O` [Example 279] was tested, and the Ki was 0.0541 µM. In the case of `CC(C)(C)[C@H](NC(=O)c1nn(Cc2ccc(F)cc2)c2ccccc12)C(=O)N[C@H]1CCC[C@H]1O` [Example 280], the Ki is reported as 0.176 µM. With `CC(C)(C)[C@H](NC(=O)c1nn(Cc2ccc(C#N)cc2)c2ccccc12)C(=O)NC[C@@H](O)C(N)=O` [Example 283] the Ki was > 0.4 µM. Work on `CC(C)(C)[C@H](NC(=O)c1nn(Cc2ccc(C#N)cc2)c2ccccc12)C(=O)N1C[C@@H](O)[C@@H](O)C1` [Example 285] yielded a Ki of 0.0279 µM. Compound `CC(C)(C)[C@H](NC(=O)c1nn(Cc2ccc(F)cc2)c2ccccc12)C(=O)NCC(=N)N` [Example 291] has a Ki of 0.0012 µM. `CC(C)(C)[C@H](NC(=O)c1nn(Cc2ccc(C#N)cc2)c2cc(F)ccc12)C(=O)NC(CO)CO` [Example 296] gave a Ki of 0.0641 µM. `CC(C)(C)[C@H](NC(=O)c1nn(Cc2ccc(C#N)cc2)c2cc(F)ccc12)C(=O)NC[C@@H](O)CO` [Example 297] showed a Ki of 0.124 µM.

Same assay, conditions: read-out: CB1 Ki
With `CC(C)(C)C(NC(=O)c1nn(Cc2ccccc2C(N)=O)c2ccccc12)C(N)=O` (stereo not shown) [Example 34] the Ki was 0.154 µM. `COc1cccc(C2(NC(=O)[C@@H](NC(=O)c3nn(Cc4ccc(C#N)cc4)c4c(F)cccc34)C(C)(C)C)CC2)c1` [Example 212] showed a Ki of 0.0521 µM. In the case of `CC(C)(C)[C@H](NC(=O)c1nn(Cc2ccc(C#N)cc2)c2c(F)cccc12)C(=O)N[C@H](CO)c1ccccc1` [Example 216], the Ki is reported as 0.225 µM. With `CC(C)(C)[C@H](NC(=O)c1nn(Cc2ccc(F)cc2)c2ccccc12)C(=O)N1C[C@@H]2C[C@H]1CN2C(N)=O` [Example 219] the Ki was > 0.4 µM. `CC(C)(C)[C@H](NC(=O)c1nn(Cc2ccc(F)cc2)c2ccccc12)C(=O)N1C[C@@H]2C[C@H]1CN2C(=O)CCC(N)=O` [Example 227] was tested, and the Ki was > 0.4 µM. In the case of `CC(C)(C)[C@H](NC(=O)c1nn(Cc2ccc(F)cc2)c2ccccc12)C(=O)N1CCC(O)(CNC(=O)C2CC2)CC1` [Example 229], the Ki is reported as 0.0313 µM. Compound `CC(C)(C)[C@H](NC(=O)c1nn(Cc2ccc(F)cc2)c2ccccc12)C(=O)N1C[C@@H]2C[C@H]1CN2CC(O)CO` (stereo partly shown) [Example 232] has a Ki of 0.0542 µM. `CC(C)(C)[C@H](NC(=O)c1nn(Cc2ccc(F)cc2)c2ccccc12)C(=O)N[C@@H](CC(N)=O)C(N)=O` [Example 239] showed a Ki of 0.0468 µM. `CC(C)(C)[C@H](NC(=O)c1nn(Cc2ccc(C(F)(F)F)cc2)c2ccccc12)C(=O)NCCNS(=O)(=O)c1ccc(C#N)cc1` [Example 267] was tested, and the Ki was 0.078 µM. Work on `CC(C)(C)[C@H](NC(=O)c1nn(Cc2ccc(F)cc2)c2ccccc12)C(=O)N1CCCC(C(=O)NCCO)C1` (stereo partly shown) [Example 277] yielded a Ki of 0.0317 µM. In the case of `CC(C)(C)[C@H](NC(=O)c1nn(Cc2ccc(F)cc2)c2ccccc12)C(=O)N1CCCC(C(=O)NC[C@H](O)CO)C1` (stereo partly shown) [Example 278], the Ki is reported as 0.0688 µM. With `CC(C)(C)[C@H](NC(=O)c1nn(Cc2ccc(C#N)cc2)c2c(F)cccc12)C(=O)N[C@H]1CCc2ccccc21` [Example 287] the Ki was > 0.4 µM. `CC(C)(C)[C@H](NC(=O)c1nn(Cc2ccc(F)cc2)c2ccccc12)C(=O)N[C@H](CC(N)=O)C(N)=O` [Example 290] gave a Ki of 0.092 µM. `CC(C)(C)[C@H](NC(=O)c1nn(Cc2ccc(F)cc2)c2ccccc12)C(=O)N1CCC[C@H]1C(=O)NCCO` [Example 293] was tested, and the Ki was > 0.4 µM. In the case of `CC(C)(C)[C@H](NC(=O)c1nn(Cc2ccc(F)cc2)c2ccccc12)C(=O)N1CCC[C@H]1C(=O)NC[C@H](O)CO` [Example 294], the Ki is reported as > 0.4 µM.
